Results taken from paper PMC10787893, “Expression and characterization of the new antimicrobial peptide AP138L-arg26 anti Staphylococcus aureus” (Applied Microbiology and Biotechnology, 2024).
In brackets after ≈: the same amount, converted by molar mass. Where a name gives a salt, the structure may show the parent alone. Read-outs that look alike come from different tables or passages of the source. One block for each compound: values may come before it.

Experiments:
[1] = test system: Staphylococcus aureus CAAS-FRI-2023-01; experiment: MIC and MBC, broth microdilution; format: cell-based; conditions: Staphylococcus aureus
Protocol: (§1) To determine the MIC values of AP138L-arg26, we used the broth microdilution technique as previously described (Andrews. [2001]; Wiegand et al. [2008]). In brief, AP138L-arg26 peptide were diluted from 1280 to 2.5 µg/mL and added to a 96-cells plate with 10 µL per well. The bacteria in the logarithmic stage were diluted to 10^5 CFU/mL with 90 µL per well. […] The MBC method was also based on the CLSI 2021 guidelines.

[2] = test system: Streptococcus agalactiae ATCC 13813; experiment: MIC and MBC, broth microdilution; format: cell-based; conditions: Streptococcus agalactiae, ATCC13813
Protocol: as §1

[3] = test system: Staphylococcus epidermidis ATCC 12228; experiment: MIC and MBC, broth microdilution; format: cell-based; conditions: Staphylococcus epidermidis, ATCC12228
Protocol: as §1

[4] = test system: Streptococcus dysgalactiae CVCC 3938; experiment: MIC and MBC, broth microdilution; format: cell-based; conditions: Streptococcus dysgalactiae, CVCC3938
Protocol: as §1

[5] = test system: Streptococcus agalactiae CAU-FRI-2022-01; experiment: MIC and MBC, broth microdilution; format: cell-based; conditions: Streptococcus agalactiae, CAUFRI202201
Protocol: as §1

[6] = test system: Streptococcus agalactiae CAU-FRI-2022-02; experiment: MIC and MBC, broth microdilution; format: cell-based; conditions: Streptococcus agalactiae, CAUFRI202202
Protocol: as §1

[7] = test system: Staphylococcus epidermidis ATCC 35984; experiment: MIC and MBC, broth microdilution; format: cell-based; conditions: Staphylococcus epidermidis, ATCC35984
Protocol: as §1

[8] = test system: Staphylococcus aureus E48; experiment: MIC and MBC, broth microdilution; format: cell-based; conditions: Staphylococcus aureus, E48
Protocol: as §1

[9] = test system: Staphylococcus aureus CVCC 546; experiment: MIC and MBC, broth microdilution; format: cell-based; conditions: Staphylococcus aureus, CVCC546
Protocol: as §1

[10] = test system: Staphylococcus aureus ATCC 25923; experiment: MIC and MBC, broth microdilution; format: cell-based; conditions: Staphylococcus aureus, ATCC25923
Protocol: as §1

[11] = test system: Staphylococcus aureus CAAS-FRI-2023-02; experiment: MIC and MBC, broth microdilution; format: cell-based; conditions: Staphylococcus aureus
Protocol: as §1

[12] = test system: Staphylococcus aureus ATCC 43300; experiment: MIC and MBC, broth microdilution; format: cell-based; conditions: Staphylococcus aureus, ATCC43300
Protocol: as §1

S. aureus ATCC 43300 = experiment: Post-antibiotic effect (PAE) assay; format: cell-based, Staphylococcus aureus; conditions: PAE = T − C
Description: The method of PAE of AP138L-arg26 against MRSA ATCC 43300 or S. aureus CVCC 546 was described previously (Wang et al. [2018]). The formula is PAE = T − C (T is the time required for the number of colonies in the sample treatment group to increase by tenfold, and C is the time required for the untreated group).

S. aureus CVCC 546 [13] = conditions: for MICa: MIC of peptide/antibiotic alone, three parallel experiments; for FIC: FIC = MICc/MICa
Protocol: The synergistic effects of AP138L-arg26 with different antibiotics were evaluated using a checkerboard assay. The synergistic effect was calculated using the FICI as follows: FICI = FIC of AP138L-arg26 + FIC of antibiotic; FIC = MICc/MICa, where MICc is the MIC of the peptide and antibiotic in combination, and MICa is the MIC of the peptide/antibiotic alone (Blier et al. [2010]). Three parallel experiments were performed for each group. The efficacy of combination therapy was defined as FICI ≤ 0.5, 0.5 < FICI ≤ 1, 1 < FICI ≤ 4, and FICI > 4 indicating synergy, addition, no difference, and antagonism, respectively.

S. aureus CVCC 546 [14] = experiment: Growth curve of S. aureus; format: cell-based, Staphylococcus aureus; conditions: AP138L-arg26 8 µg/mL (2 × MIC), ceftiofur sodium 0.25 µg/mL (1/8 MIC), alone or combined; 1 × 10^5 CFU/mL
Protocol: Samples were taken during the logarithmic growth of S. aureus and diluted to 1 × 10^5 CFU/mL (Delpech et al. [2019]). Different concentrations of AP138L-arg26, ceftiofur sodium, or a combination of them with an equal volume of bacteria were added to a 96-well microplate. The growth curves were recorded using a fully automatic growth curve recording instrument.

[15] = 99.99% of bacteria killed, plated on MHA, read-out: MBC
[16] = broth microdilution, 10^5 CFU/mL, 37 °C, 18 h, read-out: MIC

Compound: CN[C@H](CC(C)C)C(=O)N[C@H]1C(=O)N[C@@H](CC(N)=O)C(=O)N[C@H]2C(=O)N[C@H]3C(=O)N[C@H](C(=O)N[C@H](C(=O)O)c4cc(O)cc(O)c4-c4cc3ccc4O)[C@H](O)c3ccc(c(Cl)c3)Oc3cc2cc(c3O[C@@H]2O[C@H](CO)[C@@H](O)[C@H](O)[C@H]2O[C@H]2C[C@](C)(N)[C@H](O)[C@H](C)O2)Oc2ccc(cc2Cl)[C@H]1O [vancomycin, reference compound]
MBC [1, 15]: 2 µg/mL (≈ 1.38 µM)
MIC [1, 16]: 1 µg/mL (≈ 0.69 µM)
MBC [2, 15]: 4 µg/mL (≈ 2.76 µM)
MIC [2, 16]: 2 µg/mL (≈ 1.38 µM)
MBC [3, 15]: 4 µg/mL (≈ 2.76 µM)
MIC [3, 16]: 2 µg/mL (≈ 1.38 µM)
MBC [4, 15]: 2 µg/mL (≈ 1.38 µM)
MIC [4, 16]: 2 µg/mL (≈ 1.38 µM)
MBC [5, 15]: 8 µg/mL (≈ 5.52 µM)
MIC [5, 16]: 2 µg/mL (≈ 1.38 µM)
MBC [6, 15]: 4 µg/mL (≈ 2.76 µM)
MIC [6, 16]: 2 µg/mL (≈ 1.38 µM)
MBC [7, 15]: 4 µg/mL (≈ 2.76 µM)
MIC [7, 16]: 2 µg/mL (≈ 1.38 µM)
MBC [8, 15]: 8 µg/mL (≈ 5.52 µM)
MIC [8, 16]: 1 µg/mL (≈ 0.69 µM)
MBC [9, 15]: 1 µg/mL (≈ 0.69 µM)
MIC [9, 16]: 1 µg/mL (≈ 0.69 µM)
MBC [10, 15]: 2 µg/mL (≈ 1.38 µM)
MIC [10, 16]: 1 µg/mL (≈ 0.69 µM)
MBC [11, 15]: 8 µg/mL (≈ 5.52 µM)
MIC [11, 16]: 2 µg/mL (≈ 1.38 µM)
MBC [12, 15]: 1 µg/mL (≈ 0.69 µM)
MIC [12, 16]: 1 µg/mL (≈ 0.69 µM)
PAE (S. aureus ATCC 43300; 1 × MIC): 0.27 h
PAE (S. aureus ATCC 43300; 2 × MIC): 0.45 h
PAE (S. aureus ATCC 43300; 4 × MIC): 1.18 h
MICa (S. aureus CVCC 546 [13]): 1 µg/mL

MICc (S. aureus CVCC 546 [13]; in combination AP138L-arg26-ceftiofur sodium): 0.25 µg/mL
Compound: CO/N=C(\C(=O)N[C@@H]1C(=O)N2C(C(=O)[O-])=C(CSC(=O)c3ccco3)CS[C@H]12)c1csc(N)n1.[Na+] [Ceftiofur sodium, ceftiofur sodium]
effect on the growth of S. aureus CVCC 546 (S. aureus CVCC 546 [14]): little effect on the growth
FIC (S. aureus CVCC 546 [13]; combination AP138L-arg26-ceftiofur sodium): 0.25

MICa (S. aureus CVCC 546 [13]): 1 µg/mL
MICc (S. aureus CVCC 546 [13]; in combination AP138L-arg26-Streptomycin sulfate): 0.5 µg/mL
Compound: [H]/N=C(/N)N[C@H]1[C@H](O)[C@@H](O)[C@H](O[C@@H]2O[C@@H](C)[C@](O)(C=O)[C@H]2O[C@@H]2O[C@@H](CO)[C@H](O)[C@@H](O)[C@@H]2NC)[C@@H](N/C(N)=N\[H])[C@@H]1O [Streptomycin sulfate]
FIC (S. aureus CVCC 546 [13]; combination AP138L-arg26-Streptomycin sulfate): 0.5

MICc (S. aureus CVCC 546 [13]; in combination AP138L-arg26-ampicillin): 0.0078 µg/mL
Compound: CC1(C)S[C@@H]2[C@H](NC(=O)[C@H](N)c3ccccc3)C(=O)N2[C@H]1C(=O)O [Ampicillin]
FIC (S. aureus CVCC 546 [13]; combination AP138L-arg26-ampicillin): 0.0625
